Common to all, as to test: Transactivation test in HeLa cells (luciferase reporter), apparent Kd by Schild regression
Holding throughout (type): cell-based
In general terms: A reporter such as luciferase makes a cellular process visible.

One experiment concerns the target T1, RAR beta (Homo sapiens, UniProt P10826).
T1 sequence (P10826 183-417 limits assumed): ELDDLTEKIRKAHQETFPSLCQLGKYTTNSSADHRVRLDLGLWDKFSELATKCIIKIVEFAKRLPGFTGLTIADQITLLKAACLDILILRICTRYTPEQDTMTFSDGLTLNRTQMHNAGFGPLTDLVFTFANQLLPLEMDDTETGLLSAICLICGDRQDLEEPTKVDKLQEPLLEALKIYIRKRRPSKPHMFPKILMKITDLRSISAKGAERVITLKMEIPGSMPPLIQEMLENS
The conditions noted are these: stably transfected HeLa cells, versus reference antagonist, 18 hours incubation, read-out: RAR beta Kdapp. The protocol: (§1) Activation of receptors by an agonist (activator) in HeLa cells leads to the expression of a reporter gene, luciferase, which generates light in the presence of a substrate. Therefore the activation of receptors can be measured by quantifying the luminescence produced after incubation of the cells in the presence of a reference antagonist. The activator products displace the antagonist from its site, thus permitting the receptor to be activated. The activity is measured by quantifying the increase in light produced. This measurement determines the activating activity of the useful compound in the invention.
(§2) In this study, a constant is determined that represents the affinity of the molecule for the receptor. This value can fluctuate according to the basal activity and expression of the receptor; it is designated apparent Kd (KdApp). […]
(§3) Full agonist controls, also called 100% controls, (4-[2-(5,5,8,8 tetramethyl-5,6,7,8 tetrahydronaphthalene-2-yl)propenyl]-benzoic acid) and inverse agonist controls, also called 0% controls, (4-{(E)-3-[4-(4-tert-butyl-phenyl)-5,5,8,8-tetramethyl-5,6,7,8-tetrahydro-naphthalen-2-yl]-3-oxo-propenyl}-benzoic acid) are also measured.
(§4) These cross curves allow determining the AC50 (concentration at which 50% activation of the receptor is observed) of the reference ligand at different concentrations of the product to be tested. These AC50s are used to calculate the Schild regression by plotting a line conforming to the Schild equation (“Quantitation in receptor pharmacology” Terry P. Kenakin, Receptors and Channels, 2001, 7, 371-385).
(§5) In the case of an […], the AC50 is calculated by plotting the curve of the product at the concentration of the reference ligand giving 80% activation. The percentage of activation that corresponds to the maximum level of activity obtained is also measured. […]
(§6) The culture medium is removed by turning over and 100 μl of a 1:1 PBS (phosphate buffer solution)/luciferin mixture is added to each well. After 5 minutes, the plates are read by the luminescence reader.

Another experiment concerns the target T2, RAR alpha (Homo sapiens, UniProt P10276).
T2 sequence (P10276 183-417 limits assumed): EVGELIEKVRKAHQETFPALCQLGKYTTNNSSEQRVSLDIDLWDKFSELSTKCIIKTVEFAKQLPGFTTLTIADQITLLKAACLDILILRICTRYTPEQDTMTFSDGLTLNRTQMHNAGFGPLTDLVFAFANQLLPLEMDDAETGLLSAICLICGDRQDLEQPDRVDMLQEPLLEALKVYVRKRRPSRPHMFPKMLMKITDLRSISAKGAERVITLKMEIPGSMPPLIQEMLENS
The note with it: stably transfected HeLa cells, versus reference antagonist, 18 hours incubation, read-out: RAR alpha Kdapp. Here is the method: as §1, §2, §3, §4, §5, §6

The target in another experiment is T3, RAR gamma (Homo sapiens, UniProt P13631).
T3 sequence (P13631 178-423 limits assumed): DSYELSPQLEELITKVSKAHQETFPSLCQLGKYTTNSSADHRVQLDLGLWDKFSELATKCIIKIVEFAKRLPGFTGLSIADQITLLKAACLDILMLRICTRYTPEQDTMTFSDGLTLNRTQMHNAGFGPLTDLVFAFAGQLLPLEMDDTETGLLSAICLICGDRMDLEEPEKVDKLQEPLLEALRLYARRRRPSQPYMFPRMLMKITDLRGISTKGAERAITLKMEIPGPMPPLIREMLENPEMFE
The conditions noted are these: stably transfected HeLa cells, versus reference antagonist, 18 hours incubation, read-out: RAR gamma Kdapp. Here is the method:
as §1, §2, §3, §4, §5, §6

As to `CC1(C)CCC(C)(C)c2cc(-c3cc(-c4ccc(C(=O)O)cc4)ccc3CCCO)ccc21` [Compound 1, 4′-(3-hydroxy-propyl)-3′-(5,5,8,8-tetramethyl-5,6,7,8-tetrahydro-naphthalen-2-yl)-biphenyl-4-carboxylic acid], the Kd on RAR beta was determined as 4 nM; at RAR alpha, 120 nM; on RAR gamma it was 4 nM.

The values above are taken from patent US10995052B2, “Biaromatic propynyl compounds, pharmaceutical and cosmetic compositions containing same, and uses thereof” (GALDERMA RESEARCH & DEVELOPMENT, priority 2016, dated 2021).
